Entries after “also recorded” stand apart in the source; their conditions may differ. Read-outs that look alike come from different tables or passages of the source.
What was measured:
[1] = biological target: T1, bacterial transglutaminase (BTG) (Streptomyces mobaraensis, UniProt P81453); type: biochemical; conditions: for BTG coupling, result in words: chADC1 N297S and chSGN35 N297S, 18.5 h
T1 construct: purchased Zedira, Darmstadt, Germany
T1 sequence (P81453 77-407): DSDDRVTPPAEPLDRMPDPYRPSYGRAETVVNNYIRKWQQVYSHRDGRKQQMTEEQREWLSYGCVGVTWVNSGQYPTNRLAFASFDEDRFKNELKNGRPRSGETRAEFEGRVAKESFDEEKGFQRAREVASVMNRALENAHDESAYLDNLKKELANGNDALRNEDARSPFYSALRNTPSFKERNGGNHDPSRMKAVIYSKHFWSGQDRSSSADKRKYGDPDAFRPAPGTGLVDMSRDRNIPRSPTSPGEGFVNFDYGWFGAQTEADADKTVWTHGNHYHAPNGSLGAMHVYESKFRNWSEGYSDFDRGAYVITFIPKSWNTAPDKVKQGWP

[2] = Solubility in water / aqueous buffer; type: physicochemical; conditions: aqueous buffer containing a maximum of 10% DMSO
[3] = cited from earlier work
[4] = PNGaseF-deglycosylated chADC1, 6 U/mL BTG (optimized: 80 eq ligand, 1 mg/ml mAb, 37° C.)
[5] = PNGaseF-deglycosylated chADC1, 80 eq ligand, 6 U/ml BTG, 1 mg/ml mAb, 37° C.
[6] = chADC1 N297S, 80 eq ligand, 6 U/ml BTG, 1 mg/ml mAb, 37° C.
[7] = PNGaseF-deglycosylated chADC1, standard conditions, 1 U/mL BTG
[8] = PNGaseF-deglycosylated chCE7, 80 eq ligand, 6 U/ml BTG, 1 mg/ml mAb, 37° C.
[9] = chADC1 N297Q (two acceptor glutamines per heavy chain), 80 eq ligand, 6 U/ml BTG, 1 mg/ml mAb, 37° C.

NCCCCCNC(=O)c1ccc(-c2c3ccc(=O)cc-3oc3cc(O)ccc23)c(C(=O)O)c1 [cadaverin-fluorescein linker, reference compound]
BTG coupling to heavy chain, result in words [1, 4]: coupling could not be achieved; also recorded: Only partial modification

NCCCCCNC(=O)CCCCCSC1CC(=O)N(CCNC(=O)CN2CCN(CC(=O)O)CCN(CC(=O)O)CCN(CC(=O)O)CC2)C1=O (stereo not shown) [C6-DOTA, 2,2′,2″-(10-(2-((2-(3-((6-((5-aminopentyl)amino)-6-oxohexyl)thio)-2,5-dioxopyrrolidin-1-yl)ethyl)-amino)-2-oxoethyl)-1,4,7,10-tetraazacyclododecane-1,4,7-triyl)triacetic acid]
unmodified heavy chain (LC-MS peak) [1, 5]: 30% | BTG coupling to heavy chain, result in words [1, 6]: near quantitative coupling

CN(C)c1cccc2c(S(=O)(=O)NCCCCCN)cccc12 [dansyl-cadaverin, reference compound]
BTG coupling to heavy chain, result in words [1, 4]: modification of all heavy chains | BTG coupling to heavy chain, result in words [1, 7]: did not go to completion | solubility in aqueous buffer, in words [2]: limited solubility

CC[C@@]1(O)C(=O)OCc2c1cc1n(c2=O)Cc2cc3ccccc3nc2-1 [CPT, camptothecin]
solubility in water [3]: about 2.5 μg/ml

maleimide-valine-citrullin-PAB-MMAF+6C Thiol Linker [MMAF linker]
heavy chain with one linker coupled (LC-MS peak) [1, 5]: 30% | unmodified heavy chain (LC-MS peak) [1, 5]: 70% | heavy chain with one linker coupled (LC-MS peak) [1, 8]: 19% | unmodified heavy chain (LC-MS peak) [1, 8]: 81% | BTG coupling with prolonged incubation, result in words ([1]; PNGaseF-deglycosylated mAb, 160 eq substrate, 6 U/mL BTGase, 40 h or 110 h, 37° C.): does not push the reaction to completion | heavy chain with one MMAF linker (LC-MS peak) [1, 9]: 75% | heavy chain with two MMAF linkers (LC-MS peak) [1, 9]: 25% | BTG coupling, result in words ([1]; 40 eq linker, 4 U/mL or 2 U/mL BTG, 37° C.): quantitatively functionalized | BTG coupling, result in words ([1]; 80 eq linker, 4 U/ml or 2 U/ml BTG, 37° C.): complete functionalization | BTG coupling, result in words ([1]; below 40 eq linker, 4 U/mL or 2 U/mL BTG, 37° C.): no longer quantitative | heavy chain with one linker coupled (LC-MS peak) [1, 6]: greater than 90%

biotin-cadaverin [reference compound]
BTG coupling to heavy chain, result in words [1, 4]: modification of all heavy chains | BTG coupling to heavy chain, result in words [1, 7]: did not go to completion

CC(=O)O[C@H]1C(=O)[C@@]2(C)[C@H]([C@H](OC(=O)c3ccccc3)[C@]3(O)C[C@H](OC(=O)[C@H](O)[C@@H](NC(=O)c4ccccc4)c4ccccc4)C(C)=C1C3(C)C)[C@]1(OC(C)=O)CO[C@@H]1C[C@@H]2O [PTX, paclitaxel]
solubility in water [3]: less than 1 μg/ml

NCCCCCNC(=O)CSC1CC(=O)N(CCNC(=O)CN2CCN(CC(=O)O)CCN(CC(=O)O)CCN(CC(=O)O)CC2)C1=O (stereo not shown) [C2-DOTA, 2,2′,2″-(10-(2-((2-(3-((2-((5-aminopentyl)amino)-2-oxoethyl)thio)-2,5-dioxopyrrolidin-1-yl)ethyl)-amino)-2-oxoethyl)-1,4,7,10-tetraazacyclododecane-1,4,7-triyl)triacetic acid]
BTG coupling to heavy chain, result in words [1, 4]: minor peak modified chADC1 heavy chain | heavy chain with one linker coupled (LC-MS peak) [1, 5]: 30% | unmodified heavy chain (LC-MS peak) [1, 5]: 70% | BTG coupling to heavy chain, result in words [1, 7]: only unmodified chADC1 heavy chain | BTG coupling to heavy chain, result in words [1, 6]: quantitative coupling could not be accomplished

[N-]=[N+]=NCCOCCOCCOCCOCCN [Azide-PEG4-NH2, reference compound]
BTG coupling to two glutamines per heavy chain, result in words ([1]; chADC1 N297Q, 80 eq ligand, 6 U/ml BTG, 1 mg/ml mAb, 37° C.): complete coupling to two glutamines on all heavy chains | BTG coupling to heavy chain, result in words [1, 6]: quantitative

— patent US9717803B2, “Enzymatic conjugation of polypeptides” (Innate Pharma, priority 2011, dated 2017)
